± gives the expanded uncertainty stated by the source.
Assay: xn = mol fraction of the nth substance listed
Conditions: 100 kPa, Liquid; for viscosity: Concentric cylinders viscometry; for mass density: Vibrating tube method

Nc1ccccc1 [aniline] + CCC(C)O
Conditions	mass density [kg/m3]	viscosity [mPa·s]
293.15 K, x1 = 0.0813	825 ± 0.2	3.32 ± 0.4
293.15 K, x1 = 0.16	842.5 ± 0.2	3.07 ± 0.37
293.15 K, x1 = 0.24	860.1 ± 0.2	2.88 ± 0.35
293.15 K, x1 = 0.3502	884.2 ± 0.3	2.71 ± 0.33
293.15 K, x1 = 0.44	903.7 ± 0.3	2.66 ± 0.32
293.15 K, x1 = 0.5601	929.6 ± 0.3	2.72 ± 0.33
293.15 K, x1 = 0.65	948.8 ± 0.3	2.81 ± 0.34
293.15 K, x1 = 0.74	967.8 ± 0.3	3 ± 0.36
293.15 K, x1 = 0.8499	990.8 ± 0.3	3.4 ± 0.41
293.15 K, x1 = 0.94	1009.4 ± 0.3	3.89 ± 0.47
293.15 K, x1 = 1	1021.7 ± 0.3	4.37 ± 0.53
298.15 K, x1 = 0.0813	820.7 ± 0.2	2.77 ± 0.33
298.15 K, x1 = 0.16	838.1 ± 0.2	2.55 ± 0.31
298.15 K, x1 = 0.24	855.7 ± 0.2	2.39 ± 0.29
298.15 K, x1 = 0.3502	879.7 ± 0.3	2.25 ± 0.27
298.15 K, x1 = 0.44	899.2 ± 0.3	2.21 ± 0.27
298.15 K, x1 = 0.5601	924.9 ± 0.3	2.24 ± 0.27
298.15 K, x1 = 0.65	944.1 ± 0.3	2.33 ± 0.28
298.15 K, x1 = 0.74	963.1 ± 0.3	2.52 ± 0.3
298.15 K, x1 = 0.8499	986.2 ± 0.3	2.92 ± 0.35
298.15 K, x1 = 0.94	1004.9 ± 0.3	3.38 ± 0.41
298.15 K, x1 = 1	1017.4 ± 0.3	3.8 ± 0.46
303.15 K, x1 = 0.0813	816.3 ± 0.2	2.3 ± 0.28
303.15 K, x1 = 0.16	833.6 ± 0.2	2.12 ± 0.26
303.15 K, x1 = 0.24	851.1 ± 0.2	1.97 ± 0.24
303.15 K, x1 = 0.3502	875.1 ± 0.3	1.83 ± 0.22
303.15 K, x1 = 0.44	894.5 ± 0.3	1.78 ± 0.21
303.15 K, x1 = 0.5601	920.4 ± 0.3	1.77 ± 0.21
303.15 K, x1 = 0.65	939.6 ± 0.3	1.83 ± 0.22
303.15 K, x1 = 0.74	958.6 ± 0.3	1.97 ± 0.24
303.15 K, x1 = 0.8499	981.8 ± 0.3	2.32 ± 0.28
303.15 K, x1 = 0.94	1000.6 ± 0.3	2.77 ± 0.33
303.15 K, x1 = 1	1013.2 ± 0.3	3.13 ± 0.38
308.15 K, x1 = 0.0813	811.9 ± 0.2	1.94 ± 0.23
308.15 K, x1 = 0.16	829.1 ± 0.2	1.81 ± 0.22
308.15 K, x1 = 0.24	846.6 ± 0.3	1.69 ± 0.2
308.15 K, x1 = 0.3502	870.5 ± 0.3	1.56 ± 0.19
308.15 K, x1 = 0.44	890 ± 0.3	1.51 ± 0.18
308.15 K, x1 = 0.5601	915.8 ± 0.3	1.5 ± 0.18
308.15 K, x1 = 0.65	935 ± 1	1.55 ± 0.19
308.15 K, x1 = 0.74	954.2 ± 0.3	1.69 ± 0.2
308.15 K, x1 = 0.8499	977.4 ± 0.3	2.01 ± 0.24
308.15 K, x1 = 0.94	996.4 ± 0.3	2.43 ± 0.29
308.15 K, x1 = 1	1009 ± 0.3	2.75 ± 0.33
313.15 K, x1 = 0.0813	807.5 ± 0.2	1.65 ± 0.2
313.15 K, x1 = 0.16	824.7 ± 0.3	1.52 ± 0.18
313.15 K, x1 = 0.24	842.1 ± 0.3	1.416 ± 0.17
313.15 K, x1 = 0.3502	865.9 ± 0.3	1.33 ± 0.16
313.15 K, x1 = 0.44	885.3 ± 0.3	1.29 ± 0.16
313.15 K, x1 = 0.5601	911.2 ± 0.3	1.3 ± 0.16
313.15 K, x1 = 0.65	930.5 ± 0.3	1.35 ± 0.16
313.15 K, x1 = 0.74	949.6 ± 0.3	1.49 ± 0.18
313.15 K, x1 = 0.8499	973 ± 0.3	1.78 ± 0.21
313.15 K, x1 = 0.94	992 ± 0.3	2.14 ± 0.26
313.15 K, x1 = 1	1004.7 ± 0.3	2.43 ± 0.29
318.15 K, x1 = 0.0813	802.9 ± 0.3	1.42 ± 0.17
318.15 K, x1 = 0.16	820 ± 0.3	1.31 ± 0.16
318.15 K, x1 = 0.24	837.3 ± 0.3	1.21 ± 0.15
318.15 K, x1 = 0.3502	861.1 ± 0.3	1.13 ± 0.14
318.15 K, x1 = 0.44	880.5 ± 0.3	1.11 ± 0.13
318.15 K, x1 = 0.5601	906.4 ± 0.3	1.13 ± 0.14
318.15 K, x1 = 0.65	925.7 ± 0.3	1.19 ± 0.14
318.15 K, x1 = 0.74	945 ± 0.3	1.31 ± 0.16
318.15 K, x1 = 0.8499	968.5 ± 0.3	1.58 ± 0.19
318.15 K, x1 = 0.94	987.6 ± 0.3	1.9 ± 0.23
318.15 K, x1 = 1	1000.4 ± 0.3	2.14 ± 0.26
323.15 K, x1 = 0.0813	798.2 ± 0.3	1.24 ± 0.15
323.15 K, x1 = 0.16	815.2 ± 0.3	1.15 ± 0.14
323.15 K, x1 = 0.24	832.5 ± 0.3	1.07 ± 0.13
323.15 K, x1 = 0.3502	856.2 ± 0.3	1 ± 0.12
323.15 K, x1 = 0.44	875.5 ± 0.3	0.99 ± 0.12
323.15 K, x1 = 0.5601	901.3 ± 0.3	1.014 ± 0.12
323.15 K, x1 = 0.65	920.7 ± 0.3	1.075 ± 0.13
323.15 K, x1 = 0.74	940 ± 0.3	1.189 ± 0.14
323.15 K, x1 = 0.8499	963.5 ± 0.3	1.46 ± 0.18
323.15 K, x1 = 0.94	982.7 ± 0.3	1.75 ± 0.21
323.15 K, x1 = 1	995.5 ± 0.3	1.96 ± 0.24

From the NIST ThermoML archive (doi:10.1021/acs.jced.6b00210)
